Data reported in patent US20060188945A1, “Screening methods” (priority 2004, published 2006).

Key:
full-length human GHR = biological target: T1, full-length human GHR (Homo sapiens, UniProt P10912); test: Immunofluorescence of subcellular distribution and internalization of growth hormone receptor; assay type: cell-based; conditions: WRL-68 cells transfected with human GHR; immunofluorescence using Mab263; 10-100 nM GH or 2 μM BVT.3693
T1 construct: plasmid DNA encoding the full-length human GHR; expressed in transfected cells; host or cells: WRL-68 cells
T1 sequence (P10912 19-638): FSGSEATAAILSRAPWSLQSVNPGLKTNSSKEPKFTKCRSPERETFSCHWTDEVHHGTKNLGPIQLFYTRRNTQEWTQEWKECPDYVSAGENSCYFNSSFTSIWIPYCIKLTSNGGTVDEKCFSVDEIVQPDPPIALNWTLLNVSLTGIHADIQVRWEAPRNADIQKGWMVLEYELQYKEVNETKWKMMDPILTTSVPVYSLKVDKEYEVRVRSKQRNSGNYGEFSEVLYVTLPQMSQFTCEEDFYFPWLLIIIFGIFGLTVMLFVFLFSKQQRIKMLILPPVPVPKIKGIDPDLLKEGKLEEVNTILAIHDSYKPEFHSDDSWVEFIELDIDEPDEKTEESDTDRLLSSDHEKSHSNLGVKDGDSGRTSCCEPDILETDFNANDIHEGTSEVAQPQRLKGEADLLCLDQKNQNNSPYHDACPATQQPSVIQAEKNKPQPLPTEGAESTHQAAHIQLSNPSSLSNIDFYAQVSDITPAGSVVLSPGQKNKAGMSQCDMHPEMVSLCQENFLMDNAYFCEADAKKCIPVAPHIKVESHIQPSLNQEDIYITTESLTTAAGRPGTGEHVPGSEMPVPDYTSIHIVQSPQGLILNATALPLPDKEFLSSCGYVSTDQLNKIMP
Protocol: WRL-68 cells were cultured in EMEM medium with NaHCO3 (Statens Veterinärmedicinska Anstalt, Uppsala, Sweden), supplemented with 10% fetal bovine serum (FBS), 2% L-Glutamine, 1% Pyruvate, and non-essential acids (NEA), all from GIBCO, at 37° C. in 5% CO2.
Transfection: Cells were transfected with plasmid DNA encoding the full-length human GHR (pMB 1288, 2 μg/μl) using DOTAP Liposomal Transfection Reagent (Roche), according to the manufacturers instructions. WRL-68 cells in T75 flasks were transfected with 10 μg DNA for each flask. 5 μl (10 μg) DNA was diluted with 250 μl OPTIMEM1 medium (GIBCO), and mixed with 75 μl DOTAP reagent diluted in 175 μl OPTIMEM1 medium. The mixture was incubated for 10 minutes and then mixed with 10 ml OPTIMEM1 medium. Cells were washed once and then incubated for 4 hours with the DNA/DOTAP transfection mix. The transfection reagents were removed and fresh culture medium was added. Cells were re-seeded into new culture dishes the following day.
Stimulation: 3×10^4 cells were seeded on chamber slides in eight-well dishes and grown for two days. […] After treatment, the cells were rinsed twice with ice-cold PBS. Fixation was performed with 4% paraformaldehyde for 20 minutes.
Staining with rabbit antiserum: The chamber slides were washed twice by immersion of the slides in a container with 0.05% TBS-Tween. […]

[1] = biological target: T2, membrane bound GHR on a human osteosarcoma cell line (Homo sapiens, UniProt P10912); test: DELFIA assay for determination of receptor on cell surface; assay type: cell-based; conditions: stimulated for 1.5 hours with increasing concentrations, Eu-labeled anti GH-rec antibody BB117, FIG. 2
T2 construct: endogenous in cells
T2 sequence (P10912 19-638): T1 sequence (P10912 19-638)
Protocol: The following method was used to quantify the number of GH receptors on the cell surface after stimulation with different compounds.
On day 1, WRL-68 cells were seeded at a density of 15,000 cells per well and incubated under standard cell culture conditions.
On day 3, cells were washed with serum-free medium and incubated 1 hour prior to stimulation with a dose-response of BVT.3693. The cells were then washed with ice-cold PBS (Dulbecco PBS-A) and fixated with 4% paraformaldehyde on ice for 20 minutes. Thereafter the plates were washed with PBS and stored in a refrigerator until used. […]
On day 4, the plates were washed with PBS using a DELFIA plate washer. […] The amount of Europium fluorescence was determined by reading in a Victor analysis instrument.
To correlate the amount of Europium fluorescence measured (which fluorescence is proportional to the number of GH receptors present on the cell surface) to the number of cells attached to the bottom of the well after all the washing steps, we developed an internal standard. […] Instead, we developed a method to quantify the amount of DNA in the wells as an internal standard. […]
10,000 cells per well were seeded the day before stimulation. […] Receptor quantification was performed using an Eu-labeled anti GH-rec antibody BB117, as described above (simplified protocol).

amount of GHR on the surface of the cells [1]: dose dependent reduction
Structure (SMILES): Cc1ccc(S(N)(=O)=O)cc1NC(=O)c1ccc(Br)o1 [BVT.3693, N-[5-(aminosulfonyl)-2-methylphenyl]-5-bromo-2-furamide]
subcellular distribution of GHR after stimulation (full-length human GHR): intracellular staining, with both a nuclear localisation and a cytoplasmic localisation of the receptor
